These are literature values, as cited in patent US20080234352A1, “Controlled release solid dispersions” (EGALET A/S, priority 2001, published 2008).

By pKa is commonly meant the pH at which an ionisable group is half protonated.

Read-outs that look alike come from different tables or passages of the source.

Test in data set [1]: not given
This is another data set of the same source.

Regarding `O=S(=O)(O)CCCN1CCN(CCO)CC1` [EPPS, 4-(2-Hydroxyethyl)-I-piperazinepropane sulfonic acid], the pKa (no step given) is listed as 8.00.
With `O=C(O)c1cccc(C(=O)O)c1C(=O)O` [Benzene-1,2,3-tricarboxylic (hemimellitic)], the pKa reads like this: (pKa1) 2.98; (pKa2) 4.25; (pKa3) 5.87.
In the case of `COc1ccccc1OCCNCC(O)COc1cccc2[nH]c3ccccc3c12` (racemic) [Carvedilol], the “alpha-mediated vasodilatory effects (decreased peripheral resistance and blood pressure) evident within” value in data set [1] (administration of an IR formulation) was ≤ 30 min. In data set [1] (in vivo), the binding to plasma result is on record as “highly bound” and the “dose excreted unchanged in the urine” value is recorded as “less than 2%”. In data set [1] (literature), the dose linearity range was 6.25 to 50 mg. In addition, the “time to peak plasma concentrations” value in data set [1] (oral administration) was “one to two”. Moreover, the “absorption in the large intestine, share of the total absorption” value in data set [1] (timed-release capsules, study by Nolte et al) was “approximately 10%”.
For `CN` [Methylamine], for the setting “no step given”, the pKa was 10.64.
`O=S(=O)(O)CCCNC(CO)(CO)CO` [TAPS, N-Tris(hydroxymethyl)methyl-2-aminopropane suifonic acid]: the pKa (pKa2) is on record as 8.40.
For `CN(C)C` [Trimethylamine], the pKa (no step given) was 9.74.
On to `O=C(O)c1cc(C(=O)O)cc(C(=O)O)c1` [Benzene-1,3,5-tricarboxylic (trimesic)], for which the pKa reads like this: (pKa1) 3.16; (pKa2) 3.98; (pKa3) 4.85.
For the molecule `O=C(O)c1cc(C(=O)O)c(C(=O)O)c(C(=O)O)c1C(=O)O` [Benzenepentacarboxylic], the pKa is, setting by setting: (pKa2) 2.95; (pKa3) 3.94; (pKa4) 5.07; (pKa5) 6.25.
As to `O=C(O)c1cc(C(=O)O)c(C(=O)O)cc1C(=O)O` [Benzene-1,2,4,5-tetracarboxylic (pyromellitic)], the pKa runs as follows: (pKa1) 2.43; (pKa2) 3.13; (pKa3) 4.44; (pKa4) 5.61.
With `O=C(O)C(O)c1ccccc1` (stereo not drawn) [Mandelic], the pKa (no step given) is on record as 3.36.
With `O=S(=O)(O)CCN1CCN(CCS(=O)(=O)O)CC1` [PIPES, 1,4-Piperazinebis-(ethanesulfonic acid)], the pKa runs as follows: (pKa3) 3.00; (pKa4) 6.8.
Take `O=S(=O)(O)CCCNC1CCCCC1` [CAPS, 3-Cyclohexylamino-I-propanesulfonic acid]: the pKa (pKa2) is listed as 10.40.
For `O=C(O)c1ccccc1C(=O)O` [Phthalic], the pKa (no step given) is given as 2.90.
In the case of `C=C(CC(=O)O)C(=O)O` [Itaconic], the pKa is 3.84 (pKa1) and 5.55 (pKa2).
As to `COc1cc2c(cc1OC)[C@@]13CCN4CC5=CCO[C@H]6CC(=O)N2[C@H]1[C@H]6[C@H]5C[C@H]43.O.O.O.O` [Brucine tetrahydrate], the pKa is, setting by setting: (pKa1) 2.30; (pKa2) 7.95.
Consider `O=C(O)CC1(CC(=O)O)CCCC1` [I,I-Cyclopentanediacetic, I,I-Cyclopentanediacetic (3,3 tetramethylene glutaric acid)], for which the pKa runs as follows: (pKa1) 3.82; (pKa2) 6.70.
As for `CC(CC(=O)O)(CC(=O)O)C(=O)O` [2-Methylpropane-1,2,3-triscarboxylic], the pKa is given as 5.02 (pKa2) and 7.20 (pKa3).
As for `O=C(O)CC(O)C(=O)O` (stereo not drawn) [Malic], the pKa by setting is: (pKa1) 3.40; (pKa2) 5.05.
With `O=C(O)CC(C(=O)O)C(CC(=O)O)C(=O)O` (stereo not drawn) [Butane-1,2,3,4-tetracarboxylic], the pKa is 4.38 (pKa2), 5.45 (pKa3) and 6.63 (pKa4).
